Experiments:
[1] = Phase-1 open cross-over cohort study in healthy subjects: conventional vs novel teicoplanin dosage regimen (pharmacokinetics, tolerability); format: in vivo, human (healthy subjects)
Protocol: Teicoplanin: Conventional Dosage Regimen as Compared to the Novel Dosage Regimen
Phase-1 Study in Healthy Subjects
The study is performed as an open, cross over cohort-study after having received ethical approval and written consent by the participating 6 healthy subjects (3 males and 3 females). The principle study design of Outman et al (1990 [4]) is used with the following modification: 6 loading doses are followed by the maintenance dosing phase up to a total of 6 days.
In the first cross over comparative study, the following two dosage regimens are used:
Regimen A1: 6 loading dosages of 400 mg twice daily (bid) followed by 3 dosages of 400 mg once daily (total 6 days): total dosage 3600 mg
Regimen B1: first loading dose 800 mg followed by 4 dosages 400 mg bid, followed by 6 dosages 200 mg bid (total 6 days): total dosage 3600 mg.
In the second cross over comparative study, the following two dosage regimens are used:
Regimen A2: 6 loading dosages of 800 mg bid followed by 3 dosages of 800 mg once daily (total 6 days): total dosage 7200 mg
Regimen B2: 6 loading dosages of 800 mg bid followed by 6 dosages 400 mg bid (total 6 days): total dosage 7200 mg.

[2] = test system: clinical isolates of Clostridium difficile; details: isolates from patients with hospital or community acquired CDI; Jamal, Rotimi 2016 [3]; cited from earlier work
[3] = test system: Gram-positive bacteria such as staphylococci (including methicillin-resistant strains), streptococci, enterococci and many anaerobic Gram-positive bacteria; details: Campoli-Richards et al. 1990 [2]; cited from earlier work
[4] = in vivo; cited from earlier work
[5] = overall, no significant difference between regimens A and B in both studies

With teicoplanin the “phlebitis or renal, hepatic, or ototoxicity” value ([1]; 1st and 2nd study) was “no evidence”, the tolerability ([1]; 1st and 2nd study, both dosing regimens) was “generally well tolerated” and the trough levels ([1]; 1st study, 1st day, regimen A1 (6 x 400 mg bid, then 3 x 400 mg once daily)) was 8 to 15 mg/L. The trough levels ([1]; 1st study, 1st day, regimen B1 (800 mg, then 4 x 400 mg bid, then 6 x 200 mg bid)) was 18 to 25 mg/L, the trough levels ([1]; 1st study, day 4 to 6, regimen A1) was 10 to 18 mg/L and the trough levels ([1]; 1st study, day 4 to 6, regimen B1) was 20 to 30 mg/L. The trough levels ([1]; 2nd study, 1st day, regimen A2 (6 x 800 mg bid, then 3 x 800 mg once daily)) was 14 to 24 mg/L, the trough levels ([1]; 2nd study, 1st day, regimen B2 (6 x 800 mg bid, then 6 x 400 mg bid)) was 25 to 34 mg/L and the trough levels ([1]; 2nd study, day 4 to 6, regimen A2) was 18 to 26 mg/L. The trough levels ([1]; 2nd study, day 4 to 6, regimen B2) was 30 to 38 mg/L, the “higher trough levels with novel vs conventional dosage regimen” value ([1]; at the 1st day (first study only) and from day 4 on) was “about 50%” and the “lightheadedness during the infusion” value ([1]; during infusion of some, but not all, doses, 6 healthy subjects) was “Two subjects experience transient lightheadedness”. The renal clearance [1, 5] was 0.19 ± 0.015 mL/min/kg, the t1/2 [1, 5] was 157+93 h and the total clearance [1, 5] was 0.21 ± 0.018 mL/min/kg. The “activity against clinical isolates” value [2] was “active”, the susceptibility in vitro [3] was “susceptible” and the “terminal half-life, mean (±SD)” value [4] was 157 (±93) hours (h). For the same substance, the “terminal half-life, median (range)” value [4] was 168 (111-278) h.
